Data on 3 molecules can be found in US5719278A, “Tricyclic benzazepine vasopressin antagonists” (American Cyanamid Company, priority 1996, dated 1998).

The structures appear in SMILES notation.

The target of one experiment is T1, Rat Hepatic V1 Receptors (Rattus norvegicus, UniProt P30560).
T1 construct: Rat liver plasma membranes expressing the vasopressin V1 receptor subtypes; from tissue; host or cells: rat liver plasma membranes
In words: Binding Assay to Rat Hepatic V1 Receptors. As to conditions: Rat Hepatic V1 Receptors (no asterisk). The protocol:
Binding Assay to Rat Hepatic V1 Receptors
Rat liver plasma membranes expressing the vasopressin V1 receptor subtypes are isolated by sucrose density gradient according to the method described by Lesko et al., (1973). These membranes are quickly suspended in 50.0 mM Tris.HCl buffer, pH 7.4, containing 0.2% bovine serum albumin (BSA) and 0.1 mM phenylmethylsulfonylfluoride (PMSF) and kept frozen at -70° C. until used in subsequent binding experiments. For binding experiments, the following is added to the wells of a ninety-six well format microtiter plate: 100 μl of 100.0 mM Tris.HCl buffer containing 10.0 mM MgCl2, 0.2% heat inactivated BSA and a mixture of protease inhibitors: leupeptin, 1.0 mg %; aprotinin, 1.0 mg %, 1,10-phenanthroline,2.0 mg %; trypsin inhibitor, 10.0 mg % and 0.1 mM PMSF, 20.0 μl of [phenylalanyl-3,4,5-^3 H] vasopressin (S.A. 45.1 Ci/mmole) at 0.8 nM, and the reaction initiated by the addition of 80 μl of tissue membranes containing 20 μg of tissue protein. The plates are kept undisturbed on the bench top at room temperature for 120 min. to reach equilibrium. Non-specific samples are assayed in the presence of 0.1 μM of the unlabeled antagonist phenylalanylvasopressin, added in 20.0 μl volume to a final incubation volume of 200 μl. Upon completion of binding, the content of each well is filtered off, using a Brandel® cell Harvester (Gaithersburg, Md.). The radioactivity trapped on the filter disk by the ligand-receptor complex is assessed by liquid scintillation counting in a Packard LS Counter, with an efficiency of 65% for tritium. The data are analyzed for IC50 values by the LUNDON-2 program for competition (LUNDON SOFTWARE, Ohio).

The test system of a further experiment is Vasopressin V2. In words: Vasopressin V2 Antagonist Activity in Conscious Hydrated Rats. The format is in vivo, rat. As to conditions: 10 mg/kg orally, N = 2, AVP 0.4 μg/kg intraperitoneally; for Osmolality (mOsm/kg): urine. Here is the method:
Vasopressin V2 Antagonist Activity in Conscious Hyrdated Rats
Conscious hydrated rats are treated with compounds under study from 0.1 to 100 mg/kg orally or vehicle. Two to four rats are used for each compound. One hour later, arginine vasopressin (AVP, antidiuretic hormone, ADH) dissolved in peanut oil is administered at 0.4 μg/kg intraperitoneally. Two rats in each test would not receive arginine vasopressin but only the vehicle (peanut oil) to serve as water-loading control. Twenty minutes later each rat is given 30 mL/kg of deionized water orally by gavage and is placed individually in a metabolic cage equipped with a funnel and a graduated glass cylinder to collect urine for four hours. Urine volume is measured and osmolality analyzed by use of a Fiske One-Ten osmometer (Fiske Assoc., Norwood, Mass. U.S.A.). Urinary sodium, potassium, and chloride are analyzed by use of ion-specific electrodes in a Beckman E3(Electrolyte 3) Analyzer.
In the following results, […] and decreased osmolality relative to AVP-control indicates activity.

Experiment [1] concerns the target T2, V1 Receptor Subtype in Human Platelet (Homo sapiens, UniProt P37288).
T2 construct: from tissue; host or cells: human platelets (platelet rich plasma from Hudson Valley Blood Services)
Put plainly: Binding to Vasopressin V1 Receptor Subtype in Human Platelet Membranes. As to conditions: *Binding to V1 Receptor Subtype in Human Platelet. The protocol: Radioligand Binding Experiments with Human Platelet Membranes
Platelet Source: Hudson Valley Blood Services, Westchester Medical Center, Valhalla, N.Y.
Frozen platelet rich plasma (PRP), received from the Hudson Valley Blood Services are thawed to room temperature. The tubes containing the PRP are centrifuged at 16,000×g for 10 min. at 4° C. and the supernatant fluid discarded. The platelets resuspended in an equal volume of 50.0 mM Tris.HCl, pH 7.5 containing 120 mM NaCl and 20.0 mM EDTA. The suspension is recentrifuged at 16,000×g for 10 min. This washing step is repeated one more time. The wash is discarded and the lysed pellets homogenized in low ionic strength buffer of Tris.HCl, 5.0 mM, pH 7.5 containing 5.0 mM EDTA. The homogenate is centrifuged at 39,000×g for 10 min. The resulting pellet is resuspended in Tris.HCl buffer, 70.0 mM, pH 7.5 and recentrifuged at 39,000×g for 10 min. The final pellet is resuspended in 50.0 mM Tris.HCl buffer pH 7.4 containing 120 mM NaCl and 5.0 mM HCl to give 1.0-2.0 mg protein per ml of suspension.
Binding to Vasopressin V1 Receptor Subtype in Human Platelet Membranes:
In wells of a 96 well format microtiter plate, add 100 μl of 50.0 mM Tris.HCl buffer containing 0.2% BSA and a mixture of protease inhibitors (aprotinin, leupeptin etc.). Then add 20 μl of [^3 H]Ligand: (Manning or Arg^8 Vasopressin), to give final concentrations ranging from 0.01 to 10.0 nM. Initiate the binding by adding 80.0 μl of platelet suspension (approx. 100 μg protein). Mix all reagents by pipetting the mixture up and down a few times. Non-specific binding is measured in the presence of 1.0 μM of unlabeled ligand (Manning or Arg^8 Vasopressin). Let the mixture stand undisturbed at room temperature for ninety (90) min. Upon this time, rapidly filter off the incubate under vacuum suction over GF/B filters, using a Brandel® Harvester. Determine the radioactivity caught on the filter disks by the addition of liquid scintillant and counting in a liquid scintillator

T2 sequence (P37288 whole entry): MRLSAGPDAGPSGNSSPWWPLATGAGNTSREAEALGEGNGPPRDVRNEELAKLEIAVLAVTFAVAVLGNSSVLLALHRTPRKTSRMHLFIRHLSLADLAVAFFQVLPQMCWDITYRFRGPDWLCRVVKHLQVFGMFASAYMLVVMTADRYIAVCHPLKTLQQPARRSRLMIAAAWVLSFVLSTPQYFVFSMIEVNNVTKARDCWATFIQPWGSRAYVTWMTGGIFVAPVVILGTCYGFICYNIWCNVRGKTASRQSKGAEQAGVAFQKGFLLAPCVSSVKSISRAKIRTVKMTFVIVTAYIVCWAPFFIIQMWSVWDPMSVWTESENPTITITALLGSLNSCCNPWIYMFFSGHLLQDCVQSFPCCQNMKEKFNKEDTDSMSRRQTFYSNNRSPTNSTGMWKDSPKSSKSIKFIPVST
T1 sequence (P30560 whole entry): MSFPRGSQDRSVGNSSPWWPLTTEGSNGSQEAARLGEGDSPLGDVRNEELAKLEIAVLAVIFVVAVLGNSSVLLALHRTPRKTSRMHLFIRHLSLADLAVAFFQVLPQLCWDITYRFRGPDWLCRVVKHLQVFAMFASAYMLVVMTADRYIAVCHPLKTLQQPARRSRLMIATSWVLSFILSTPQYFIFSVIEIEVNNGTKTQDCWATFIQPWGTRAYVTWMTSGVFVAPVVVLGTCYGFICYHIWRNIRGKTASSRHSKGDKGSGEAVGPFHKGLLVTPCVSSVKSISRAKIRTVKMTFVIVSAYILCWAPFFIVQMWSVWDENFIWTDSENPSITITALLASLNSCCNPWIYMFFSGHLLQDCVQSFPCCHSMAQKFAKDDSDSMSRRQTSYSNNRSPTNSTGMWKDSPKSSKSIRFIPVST

On to `O=C(Nc1ccc(C(=O)N2CCc3cn[nH]c3-c3sccc32)cc1)c1ccc(F)cc1Cl` [Example 1, N-[4-[(4,5-Dihydropyrazolo[3,4-d]thieno[3,2-b]azepin-6(1H)-yl)carbonyl]phenyl]-2-chloro-4-fluorobenzamide], for which the IC50 on Rat Hepatic V1 Receptors came to 2 µM. Besides, in the experiment with Vasopressin V2, the “Urine Vol. (ml/4 hrs.)” value came to 15.3 ml/4 hrs and the “Osmolality (mOsm/kg)” value stood at 535 mOsm/kg.

`O=C(Nc1ccc(C(=O)N2CCc3cn[nH]c3-c3ncccc32)cc1)c1ccccc1-c1ccccc1` [Example 365, N-[4-[(4,5-Dihydropyrazolo[3,4-d]pyrido[3,2-b]azepin-6(1H)-yl)carbonyl]phenyl][1,1'-biphenyl]-2-carboxamide]: the IC50 in experiment [1] amounted to 0.101 µM. In the experiment on Vasopressin V2, the “Urine Vol. (ml/4 hrs.)” value is recorded as 2.6 ml/4 hrs and the “Osmolality (mOsm/kg)” value is on record as 251 mOsm/kg.

Consider `Cc1ccc(F)cc1C(=O)Nc1ccc(C(=O)N2CCc3c[nH]nc3-c3ncccc32)cc1` [Example 367, N-[4-[4(4,5-Dihydropyrazolo[3,4-d]pyrido[3,2-b]azepin-6(1H)-yl)carbonyl]phenyl]-5-fluoro-2-methylbenzamide], for which the IC50 in experiment [1] is 0.31 µM. Also, in the experiment with Vasopressin V2, the “Urine Vol. (ml/4 hrs.)” value is 10 ml/4 hrs and the “Osmolality (mOsm/kg)” value stood at 627 mOsm/kg.
